Columns and labels:
MCF7 = assay: Antiproliferative activity against human MCF7 cells assessed as inhibition of cell proliferation incubated for 48 hrs by MTT assay; format: functional, cell-based; details: MCF7, 48 h
SMMC-7721 = assay: Antiproliferative activity against human SMMC-7721 cells assessed as inhibition of cell proliferation incubated for 48 hrs by MTT assay; format: functional, cell-based; details: SMMC-7721, 48 h
HeLa = assay: Antiproliferative activity against human HeLa cells assessed as inhibition of cell proliferation incubated for 48 hrs by MTT assay; format: functional, cell-based
Bel-7402 = assay: Cytotoxicity against human Bel-7402 cells assessed as inhibition of cell growth incubated for 48 hrs by MTT assay; format: functional, cell-based; details: Bel-7402, 48 h
[1] = Cytotoxicity against human QSG7701 cells assessed as inhibition of cell growth incubated for 48 hrs by MTT assay; format: toxicity, cell-based
Candida albicans = assay: Antifungal activity against Candida albicans MTCC 227 assessed as zone of inhibition at 100 ug/ml by well diffusion assay; format: functional; details: read-out: IZ
Saccharomyces cerevisiae = assay: Antifungal activity against Saccharomyces cerevisiae MTCC 36 assessed as zone of inhibition at 100 ug/ml by well diffusion assay; format: functional; details: read-out: IZ
Pseudomonas aeruginosa = assay: Antibacterial activity against Pseudomonas aeruginosa MTCC 741 assessed as zone of inhibition at 50 ug/ml by well diffusion assay; format: functional; details: read-out: IZ
Escherichia coli = assay: Antibacterial activity against Escherichia coli MTCC 443 assessed as zone of inhibition at 50 ug/ml by well diffusion assay; format: functional; details: read-out: IZ
Aspergillus niger = assay: Antifungal activity against Aspergillus niger MTCC 282 assessed as zone of inhibition at 100 ug/ml by well diffusion assay; format: functional; details: read-out: IZ
[2] = system: Staphylococcus epidermidis; assay: Antibacterial activity against Staphylococcus epidermidis MTCC 435 assessed as zone of inhibition at 50 ug/ml by well diffusion assay; format: functional; details: read-out: IZ
Rhizopus arrhizus = assay: Antifungal activity against Rhizopus oryzae MTCC 262 assessed as zone of inhibition at 100 ug/ml by well diffusion assay; format: functional; details: read-out: IZ
Staphylococcus aureus = assay: Antibacterial activity against Staphylococcus aureus MTCC 96 assessed as zone of inhibition at 50 ug/ml by well diffusion assay; format: functional; details: read-out: IZ
HepG2 = assay: Antiproliferative activity against human HepG2 cells assessed as inhibition of cell proliferation incubated for 48 hrs by MTT assay; format: functional, cell-based; details: HepG2, 48 h
K562 = assay: Antiproliferative activity against human K562 cells assessed as inhibition of cell proliferation incubated for 48 hrs by MTT assay; format: functional, cell-based; details: K562, 48 h
MDA-MB-231 = assay: Antiproliferative activity against human MDA-MB-231 cells assessed as inhibition of cell proliferation incubated for 48 hrs by MTT assay; format: functional, cell-based; details: MDA-MB-231, 48 h
HCT-116 = assay: Antiproliferative activity against human HCT-116 cells assessed as inhibition of cell proliferation incubated for 48 hrs by MTT assay; format: functional, cell-based; details: HCT-116, 48 h
[3] = Antiproliferative activity against human QSG7701 cells assessed as inhibition of cell proliferation incubated for 48 hrs by MTT assay; format: toxicity, cell-based

SMILES | IC50 (Bel-7402) [µM] | IC50 at 48 h [1] [µM] | zone of inhibition at 100 µg/mL (Candida albicans) [mm] | zone of inhibition at 100 µg/mL (Saccharomyces cerevisiae) [mm] | zone of inhibition at 50 µg/mL (Pseudomonas aeruginosa) [mm] | zone of inhibition at 50 µg/mL (Escherichia coli) [mm] | zone of inhibition at 100 µg/mL (Aspergillus niger) [mm] | zone of inhibition at 50 µg/mL [2] [mm] | zone of inhibition at 100 µg/mL (Rhizopus arrhizus) [mm] | zone of inhibition at 50 µg/mL (Staphylococcus aureus) [mm] | further results
CCN(CC)CCN1C(=O)c2cccc3cc(-n4ccnn4)cc(c23)C1=O |  |  |  |  |  |  |  |  |  |  | IC50 (MCF7): 0.3 µM; IC50 (SMMC-7721): 0.3 µM; IC50 (HeLa): 0.3 µM
NCCCCNCCCCNCCCCN1C(=O)c2cccc3cccc(c23)C1=O | 1.06 | > 50 |  |  |  |  |  |  |  |  | 
NCCCNCCCCNCCCN1C(=O)c2cccc3c(Br)ccc(c23)C1=O | 1.06 | > 50 |  |  |  |  |  |  |  |  | 
CCC1=C(C(=O)OC)C(CN2C(=O)c3cccc4cccc(c34)C2=O)NC(=O)N1 (stereo not given) |  |  | 12 | 12 | 12 | 12 | 12 | 15 | 12 | 15 | 
COC(=O)C1=C(C)NC(=O)NC1CN1C(=O)c2cccc3cccc(c23)C1=O (stereo not given) |  |  | 12 | 12 | 12 | 12 | 12 | 15 | 12 | 15 | 
NCCCNCCCNCCCN1C(=O)c2cccc3c(Cl)ccc(c23)C1=O | 1.06 | > 50 |  |  |  |  |  |  |  |  | 
O=C1c2cccc3cc(-n4cc(-c5ccccc5)nn4)cc(c23)C(=O)N1CCN1CCNCC1 |  |  |  |  |  |  |  |  |  |  | IC50 (MCF7): 0.3 µM; IC50 (SMMC-7721): 0.3 µM; IC50 (HeLa): 0.3 µM
NCCCNCCCCNCCCCN1C(=O)c2cccc3cccc(c23)C1=O | 1.06 | > 50 |  |  |  |  |  |  |  |  | 
CCC1=C(C(=O)Oc2ccccc2)C(CN2C(=O)c3cccc4cccc(c34)C2=O)NC(=O)N1 (stereo not given) |  |  | 12 | 12 | 12 | 12 | 12 | 15 | 12 | 15 | 
CCOC(=O)C1=C(CC)NC(=O)NC1CN1C(=O)c2cccc3cccc(c23)C1=O (stereo not given) |  |  | 12 | 12 | 12 | 12 | 12 | 15 | 12 | 15 | 
Clc1ccccc1C(c1ccccc1)(c1ccccc1)n1ccnc1 [CLOTRIMAZOLE] |  |  | 22 | 22 |  |  | 22 |  | 22 |  | 
NCCCCNCCCCNCCCCN1C(=O)c2cccc3c(Cl)ccc(c23)C1=O | 1.06 | > 50 |  |  |  |  |  |  |  |  | 
CN(C)CCN1C(=O)c2cccc3cc(NC(=O)CNCCCCNCCCCNCCCCN)cc(c23)C1=O |  |  |  |  |  |  |  |  |  |  | IC50 (HepG2): 6.42 µM; IC50 (K562): 6.42 µM; IC50 (MDA-MB-231): 6.42 µM; IC50 (HCT-116): 6.42 µM; IC50 at 48 h [3]: 6.42 µM; IC50 (SMMC-7721): 6.42 µM
NCCCNCCCCNCCCN1C(=O)c2cccc3cc(N)cc(c23)C1=O | 1.06 | > 50 |  |  |  |  |  |  |  |  | 
CCCCNC(=O)Nc1cc2c3c(cccc3c1)C(=O)N(CCN(C)C)C2=O |  |  |  |  |  |  |  |  |  |  | IC50 (HepG2): > 50 µM; IC50 (K562): > 50 µM; IC50 (MDA-MB-231): > 50 µM; IC50 (HCT-116): > 50 µM; IC50 at 48 h [3]: > 50 µM; IC50 (SMMC-7721): > 50 µM
COC(=O)C1=C(C)NC(=S)NC1CN1C(=O)c2cccc3cccc(c23)C1=O (stereo not given) |  |  | 12 | 12 | 12 | 12 | 12 | 15 | 12 | 15 | 
NCCCCNCCCCNCCCCN1C(=O)c2cccc3cc(N)cc(c23)C1=O | 1.06 | > 50 |  |  |  |  |  |  |  |  | 
CN[C@@H]1[C@H](O[C@H]2[C@H](O[C@H]3[C@H](O)[C@@H](O)[C@H](N=C(N)N)[C@@H](O)[C@@H]3N=C(N)N)O[C@@H](C)[C@]2(O)C=O)O[C@@H](CO)[C@H](O)[C@H]1O [STREPTOMYCIN] |  |  |  |  | 24 | 29 |  | 23 |  | 21 | 

— ChEMBL document CHEMBL5244223, “l,8-Naphthalimide based DNA intercalators and anticancer agents. A systematic review from 2007 to 2017” (Eur J Med Chem, 2018)
